*1 amine or outer side, *2 acyl side, *3 side chain or, on linkers, in order; H or OH if unused. Where a SMILES comes first, the peptide text is derived from it. Bridges are numbered along the chain shown (N, C = ends). The star is where a group is joined. X1 = NC(=O)Cc1cc(=O)oc2cc(NC(=O)[C@@H]3CCCN3C(=O)Cn3nc(C[*:1])cc3C[*:2])ccc12; X2 = NC(=O)Cc1cc(=O)oc2cc(NC(=O)[C@@H]3CCCN3C(=O)Cn3nc(C[*:2])cc3C[*:1])ccc12; AMC = Cc1cc(=O)oc2cc(N*)ccc12
How the values were obtained:
Format in all cases: biochemical
Recombinant Human DPP4 = target: T1, Recombinant Human DPP4 (Homo sapiens, UniProt P27487); assay: Kinetic evaluation of substrates; details: for SI (selectivity index, coefficient of the proteases kcat/Km), FAPα vs DPP4: kcat/KM FAPα over kcat/KM DPP4
T1 construct: purchased Sino Biological 10688-HNCH-10
Experimental: (§1) Fluorogenic Substrate Cleavage Assay
(§2) The following proteases were used for the activity assay: Recombinant Human FAPα Protein, CF (R&D Systems, Catalog No.: 3715-SE-010), Recombinant Human Prolyl Oligopeptidase/PREP Protein, CF (R&D Systems, Catalog No.: 4308-SE-010). Recombinant Human DPP9 Protein, CF (R&D Systems, Catalog No.: 5419-SE-010). Recombinant Human DPP4 Protein (Sino Biological, Catalog No.: 10688-HNCH-10). The buffers used for the activity assay were: FAPα - 50 mM Tris, 1 M NaCl, 1 mg/mL BSA, pH 7.5, PREP- 25 mM Tris, 250 mM NaCl, 2.5 mM DTT, pH 7.5 (DTT was freshly added immediately before use), DPP9- 25 mM Tris, pH 7.5, DPP4- 25 mM Tris, pH
(§3) 7.5. The following commercial substrates were used: zGP-AMC (Bachem,Catalog No.: […]
(§4) conducted in Greiner Bio-One black microplates of 384 wells and polystyrene F-bottom (Catalog No.: 784076). All compounds were dissolved in DMSO at a concentration of 10 mM and then diluted into the respective buffer to the desired final concentration. The protease was added to the specified concentration before the fluorescence measurements. For fluorescence measurements, 2 μL of substrate was further diluted into 6 μL of buffer, followed by addition of 2 μL of enzyme in buffer. For no enzyme controls 2 μL of substrate was diluted into 8 μL of buffer.
(§5) The fluorescence was measured using a Cytation 3 plate reader (BioTek). All experiments have at least three technical replicates. All assays were conducted at 37°C for a minimum of 90 min, unless otherwise noted. Fluorescence measurements were performed at ex/em, 355/460 nm for ACC substrates. The substrates velocity was quantified by calculating the slope of the linear phase of the reaction as relative fluorescence units (RFU) per min.
(§6) Kinetic evaluation of substrates
To order to determine the kcat/KM, the previously indicated proteases were tested under their corresponding buffer conditions. Substrates were serially diluted in water, and 2 µL of each dilution was added to 6 µL of assay buffer in a 384-well plate. The plate was briefly centrifuged to ensure proper mixing and to eliminate air bubbles. Fluorescence measurements were initiated by adding 2 µL of the protease solution (prepared in activity buffer) to each well, yielding a final volume of 10 µL. Reactions were monitored at 37 °C for 60 minutes using a plate reader set to excitation/emission wavelengths of 355/460 nm. Control wells without enzyme contained 8 µL of assay buffer, instead of enzyme, and 2 µL of substrate. All measurements were performed in at least triplicate. The initial linear portion of each fluorescence progress curve was used to calculate initial reaction velocities (RFU/min). Calibration curves using free AMC were generated under the corresponding buffer and assay conditions to allow extrapolation of RFU values to µM concentrations. Michaelis-Menten kinetic parameters K M, kcat and kcat/,KM were determined using […]
GraphPad Prism version 10.4.1. […]
determined due to poor model fit. […]

Recombinant Human DPP9 = target: T2, Recombinant Human DPP9 (Homo sapiens, UniProt Q86TI2); assay: Kinetic evaluation of substrates; details: for SI (selectivity index, coefficient of the proteases kcat/Km), FAPα vs DPP9: kcat/KM FAPα over kcat/KM DPP9
T2 construct: purchased R&D Systems 5419-SE-010
Experimental: as §1, §2, §3, §4, §5, §6
To order to determine the kcat/KM, the previously indicated proteases were tested under their corresponding buffer conditions. Substrates were serially diluted in water, and 2 µL of each dilution was added to 6 µL of assay buffer in a 384-well plate. The plate was briefly centrifuged to ensure proper mixing and to eliminate air bubbles. Fluorescence measurements were initiated by adding 2 µL of the protease solution (prepared in activity buffer) to each well, yielding a final volume of 10 µL. Reactions were monitored at 37 °C for 60 minutes using a plate reader set to excitation/emission wavelengths of 355/460 nm. Control wells without enzyme contained 8 µL of assay buffer, instead of enzyme, and 2 µL of substrate. All measurements were performed in at least triplicate. The initial linear portion of each fluorescence progress curve was used to calculate initial reaction velocities (RFU/min). Calibration curves using free AMC were generated under the corresponding buffer and assay conditions to allow extrapolation of RFU values to µM concentrations. Michaelis-Menten kinetic parameters K M, kcat and kcat/,KM were determined using GraphPad Prism version 10.4.1. In some cases, KM, kcat or kcat/,KM values could not be reliably determined due to poor model fit. […]

Recombinant Human FAPα = target: T3, Recombinant Human FAPα (Homo sapiens, UniProt Q12884); assay: Fluorogenic substrate cleavage assay
T3 construct: purchased R&D Systems 3715-SE-010
T3 sequence (Q12884 1-760): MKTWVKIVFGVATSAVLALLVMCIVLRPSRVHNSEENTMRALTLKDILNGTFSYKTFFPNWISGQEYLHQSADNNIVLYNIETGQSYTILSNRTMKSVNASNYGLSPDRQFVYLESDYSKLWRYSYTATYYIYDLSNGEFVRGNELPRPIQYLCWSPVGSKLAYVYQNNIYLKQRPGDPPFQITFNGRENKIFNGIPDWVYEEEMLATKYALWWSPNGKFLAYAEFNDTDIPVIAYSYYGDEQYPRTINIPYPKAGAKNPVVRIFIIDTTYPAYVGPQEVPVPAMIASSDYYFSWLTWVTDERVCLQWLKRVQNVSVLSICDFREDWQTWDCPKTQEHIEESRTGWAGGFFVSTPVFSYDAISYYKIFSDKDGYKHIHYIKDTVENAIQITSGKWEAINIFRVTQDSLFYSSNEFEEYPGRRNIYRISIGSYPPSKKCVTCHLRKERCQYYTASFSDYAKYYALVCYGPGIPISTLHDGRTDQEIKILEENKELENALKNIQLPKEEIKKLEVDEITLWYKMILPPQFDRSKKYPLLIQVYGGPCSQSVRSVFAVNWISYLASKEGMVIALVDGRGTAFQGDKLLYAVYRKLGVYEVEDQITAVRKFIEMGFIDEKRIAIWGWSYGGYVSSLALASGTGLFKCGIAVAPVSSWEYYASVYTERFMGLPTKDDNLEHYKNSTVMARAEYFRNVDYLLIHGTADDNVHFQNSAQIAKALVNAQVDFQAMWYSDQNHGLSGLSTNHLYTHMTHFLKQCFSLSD
Experimental: as §1, §2, §3, §4
as §5, with “min. […]” for “min.”

[1] = 3 nM DPP4, 37 °C, 60 min, Michaelis-Menten fit, triplicates
[2] = 3 nM DPP4, 37 °C, 60 min, Michaelis-Menten fit, triplicates, ± SD
[3] = 6 nM DPP9, 37 °C, 60 min, Michaelis-Menten fit, triplicates

T2 sequence (Q86TI2 whole entry): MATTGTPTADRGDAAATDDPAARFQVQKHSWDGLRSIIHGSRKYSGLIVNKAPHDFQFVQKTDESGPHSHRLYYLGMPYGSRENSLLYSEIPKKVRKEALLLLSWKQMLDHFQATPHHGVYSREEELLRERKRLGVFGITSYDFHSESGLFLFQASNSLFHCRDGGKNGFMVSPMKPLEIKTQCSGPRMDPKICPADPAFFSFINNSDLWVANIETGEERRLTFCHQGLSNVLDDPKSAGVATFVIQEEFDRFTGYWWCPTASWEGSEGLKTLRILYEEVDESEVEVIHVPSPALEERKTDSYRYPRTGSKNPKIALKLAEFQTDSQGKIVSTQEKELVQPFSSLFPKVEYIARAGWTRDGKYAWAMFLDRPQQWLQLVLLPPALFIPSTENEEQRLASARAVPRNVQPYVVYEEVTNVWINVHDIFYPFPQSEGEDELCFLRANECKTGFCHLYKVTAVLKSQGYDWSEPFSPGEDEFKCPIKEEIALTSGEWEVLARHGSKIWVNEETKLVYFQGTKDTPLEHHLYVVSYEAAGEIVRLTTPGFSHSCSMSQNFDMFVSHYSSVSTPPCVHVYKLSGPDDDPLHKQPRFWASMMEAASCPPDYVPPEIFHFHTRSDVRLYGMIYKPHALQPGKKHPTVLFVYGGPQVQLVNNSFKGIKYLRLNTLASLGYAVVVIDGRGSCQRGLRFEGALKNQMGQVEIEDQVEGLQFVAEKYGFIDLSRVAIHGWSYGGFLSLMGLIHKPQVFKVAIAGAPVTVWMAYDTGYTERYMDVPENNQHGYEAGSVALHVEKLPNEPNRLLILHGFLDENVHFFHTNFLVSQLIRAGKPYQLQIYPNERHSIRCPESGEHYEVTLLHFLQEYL
T1 sequence (P27487 whole entry): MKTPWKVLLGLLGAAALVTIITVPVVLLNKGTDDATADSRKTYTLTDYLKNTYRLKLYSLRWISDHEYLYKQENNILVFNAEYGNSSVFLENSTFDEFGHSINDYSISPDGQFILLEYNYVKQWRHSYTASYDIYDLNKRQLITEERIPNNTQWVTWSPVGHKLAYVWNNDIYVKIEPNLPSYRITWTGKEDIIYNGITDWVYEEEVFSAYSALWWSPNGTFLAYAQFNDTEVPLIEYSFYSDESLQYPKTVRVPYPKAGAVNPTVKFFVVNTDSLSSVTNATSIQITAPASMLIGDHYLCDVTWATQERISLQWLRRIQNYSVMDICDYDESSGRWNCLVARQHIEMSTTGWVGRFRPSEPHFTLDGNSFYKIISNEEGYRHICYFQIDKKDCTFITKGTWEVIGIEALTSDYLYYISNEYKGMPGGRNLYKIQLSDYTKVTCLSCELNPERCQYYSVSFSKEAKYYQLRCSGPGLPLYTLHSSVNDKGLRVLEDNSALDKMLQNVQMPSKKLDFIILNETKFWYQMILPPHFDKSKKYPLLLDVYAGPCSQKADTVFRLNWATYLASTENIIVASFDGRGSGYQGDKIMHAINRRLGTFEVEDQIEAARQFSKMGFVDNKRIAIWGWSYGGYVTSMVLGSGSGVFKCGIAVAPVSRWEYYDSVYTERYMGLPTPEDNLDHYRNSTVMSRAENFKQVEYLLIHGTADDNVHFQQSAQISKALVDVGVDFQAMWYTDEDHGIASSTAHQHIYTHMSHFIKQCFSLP

Structure (SMILES) | SI (selectivity index, coefficient of the proteases kcat/Km), FAPα vs DPP4 (Recombinant Human DPP4) | SI (selectivity index, coefficient of the proteases kcat/Km), FAPα vs DPP9 (Recombinant Human DPP9) | selectivity for DPP4 (vs FAPα) (Recombinant Human FAPα; Supplementary figure 11, 200 μM, 1 hour at 37°C, 2 nM DPP4 vs 10 nM FAPα, RFU/min) [fold] | Km (Recombinant Human DPP4; 3 nM DPP4, 25 mM Tris, pH 7.5, 37 °C, 60 min, ex/em 355/460 nm, Michaelis-Menten fit, triplicates, ± SD) [µM] | kcat/KM (Recombinant Human DPP4; [1]) [M⁻¹ s⁻¹] | kcat (Recombinant Human DPP4; [2]) [s⁻¹] | Km (Recombinant Human DPP9; 6 nM DPP9, 25 mM Tris, pH 7.5, 37 °C, 60 min, Michaelis-Menten fit, triplicates, ± SD) [µM] | kcat (Recombinant Human DPP9; [3]) [s⁻¹] | kcat/KM (Recombinant Human DPP9; [3]) [M⁻¹ s⁻¹] | SI (selectivity index, coefficient of the proteases kcat/Km), DPP4 vs DPP9 (Recombinant Human DPP9; kcat/KM DPP4 over kcat/KM DPP9) | FAPα activity (substrate cleavage, RFU/min), in words (Recombinant Human FAPα; substrate 200 μM, 10 nM FAPα, 37 °C, triplicates)
CC(C)C[C@@H]1NC(=O)[C@H](CC(N)=O)NC(=O)[C@H](CCC(N)=O)NC(=O)[C@H](Cc2ccccc2)NC(=O)[C@H](CO)NC(=O)[C@H](C(C)C)NC(=O)[C@@H](N)CSCc2cc(nn2CC(=O)N2CCC[C@H]2C(=O)Nc2ccc3c(CC(N)=O)cc(=O)oc3c2)CSC[C@@H](C(=O)NCC(N)=O)NC(=O)[C@H](CC(=O)O)NC1=O [FAP-33.2] (H-CVSFQNLDCG-NH2; linker 1-9 via X2; N-terminus assumed) | FAPα >>>DPP4 | FAPα >>>DPP9 | – | – | – | – | – | – | – | – | –
Cc1cc(=O)oc2cc(NC(=O)[C@@H]3CCCN3C(=O)CN)ccc12 [GP-AMC] (H-Gly-Pro-{AMC}) | – | – | 16 | 52 ± 4 | 380000 | 19.9 ± 0.6 | 61 ± 11 | 0.21 | 3455 | 110 | –
CC(C)[C@@H]1NC(=O)[C@@H](N)CSCc2cc(n(CC(=O)N3CCC[C@H]3C(=O)Nc3ccc4c(CC(N)=O)cc(=O)oc4c3)n2)CSC[C@@H](C(=O)NCC(N)=O)NC(=O)[C@H](CC(=O)O)NC(=O)[C@H](C)NC(=O)[C@H](CC(N)=O)NC(=O)[C@H](CCC(N)=O)NC(=O)[C@H](Cc2ccccc2)NC(=O)[C@H](CO)NC1=O [FAP-33.2A6] (H-CVSFQNADCG-NH2; linker 1-9 via X1; N-terminus assumed) | 6 | FAPα >>>DPP9 | – | – | 5168 | 0.460 ± 0.018 | – | – | – | – | better substrate than the parent FAP-33.2
